Experimental data as given in US11085053B2, “Efficient selectivity of recombinant proteins” (REGENERON PHARMACEUTICALS, INC., priority 2014, dated 2021).

Tested on: Modified CHO K1 cells
Assay: Selection efficiency of transfectant cells by FACS (GFP+ population)
Assay type: cell-based, Chinese hamster
Text: Modified CHO K1 cells were transfected with a plasmid vector containing CHO-GPT (SEQ ID NO: 2), human GPT (SEQ ID NO:12) or a plasmid vector containing a hygromycin phosphotransferase (Hpt, Hygromycin resistant gene); e.g. the selectable marker gene (CHO-GPT or hpt) was transcriptionally linked to a downstream eGFP gene via an IRES sequence, in their respective vectors. For example, each plasmid was constructed to contain the following gene sequences, in 5′ to 3′ direction: a Lox site, a SV40 late promoter, either CHO-GPT (or Hpt), IRES, enhanced green fluorescent protein (eGFP), and a second Lox site. Purified recombinant plasmids were transfected together with a plasmid that expresses Cre recombinase, into a modified CHO host cell line containing: from 5′ to 3′, a lox site, YFP, and a second lox site, at a transcriptionally active locus. Consequently, the host CHO cell can be isolated by flow cytometry as a green-positive or a yellow-negative cell. […]
Cell populations were either incubated with 0, 1 μg/ml, 2.5 μg/ml or 5 μg/ml tunicamycin (Tn) or 400 μg hygromycin (Hyg), as outlined in Table 2. Observed recombinant populations (ORPs) were measured by fluorescent-activated cell sorting (FACS) analysis. Cells were sorted to quantitate each population of cells, and selection efficiency was calculated for cells expressing only GFP and not YFP (FIG. 4 or 5). […]

Substance: tunicamycin
- Selection efficiency compared with hygromycin selection: as efficient as hygromycin selection
